Assay results published in PMC10384657 (Virus Research, 2023).

How the values were obtained:
Vero E6 cells = conditions: 72 h
[1] = system: MPER25c peptide (S2 membrane proximal region derived); format: binding, SARS-CoV-2

Row | SMILES | CC50 (mean ± SD) (Vero E6 cells) [µM] | fold lower binding activity to immobilized MPER25c than PN19 [1]
1 | CC[C@H](C)[C@H](NC(=O)[C@H](CCC(N)=O)NC(=O)[C@H](CC(C)C)NC(=O)[C@H](C)NC(=O)[C@H](C)NC(=O)CNC(=O)[C@H](C)NC(=O)CNC(=O)[C@H](Cc1ccccc1)NC(=O)[C@@H](NC(=O)[C@H](Cc1c[nH]c2ccccc12)NC(=O)CNC(=O)[C@H](CO)NC(C)=O)[C@@H](C)O)C(=O)N1CCC[C@H]1C(=O)N[C@@H](Cc1ccccc1)C(=O)N[C@@H](C)C(=O)N[C@@H](CCSC)C(N)=O [PC17] | > 100 | 
2 | CC[C@H](C)[C@H](NC(=O)[C@H](CCC(N)=O)NC(=O)[C@H](CC(C)C)NC(=O)[C@H](C)NC(=O)[C@H](C)NC(=O)CNC(=O)[C@H](C)NC(=O)CNC(=O)[C@H](Cc1ccccc1)NC(=O)[C@@H](NC(=O)[C@H](Cc1c[nH]c2ccccc12)NC(=O)CNC(=O)[C@H](CO)NC(C)=O)[C@@H](C)O)C(=O)N1CCC[C@H]1C(=O)N[C@@H](Cc1ccccc1)C(=O)N[C@@H](C)C(=O)N[C@@H](CCSC)C(=O)N[C@@H](CCC(N)=O)C(=O)N[C@@H](CCSC)C(N)=O [PC19] | > 100 | 
3 | CSCC[C@H](NC(=O)[C@H](C)NC(=O)[C@H](Cc1ccccc1)NC(C)=O)C(=O)N[C@@H](CCC(N)=O)C(=O)N[C@@H](CCSC)C(=O)N[C@@H](C)C(=O)N[C@@H](Cc1ccc(O)cc1)C(=O)N[C@@H](CCCNC(=N)N)C(=O)N[C@@H](Cc1ccccc1)C(N)=O [PN9] | > 100 | 
4 | CC[C@H](C)[C@H](NC(=O)[C@H](CCC(N)=O)NC(=O)[C@H](CC(C)C)NC(C)=O)C(=O)N1CCC[C@H]1C(=O)N[C@@H](Cc1ccccc1)C(=O)N[C@@H](C)C(=O)N[C@@H](CCSC)C(=O)N[C@@H](CCC(N)=O)C(=O)N[C@@H](CCSC)C(=O)N[C@@H](C)C(=O)N[C@@H](Cc1ccc(O)cc1)C(=O)N[C@@H](CCCNC(=N)N)C(=O)N[C@@H](Cc1ccccc1)C(N)=O [PN13] | > 100 | 
5 | CC[C@H](C)[C@H](NC(=O)[C@H](CCC(N)=O)NC(=O)[C@H](CC(C)C)NC(=O)[C@H](C)NC(=O)[C@H](C)NC(=O)CNC(=O)[C@H](C)NC(C)=O)C(=O)N1CCC[C@H]1C(=O)N[C@@H](Cc1ccccc1)C(=O)N[C@@H](C)C(=O)N[C@@H](CCSC)C(=O)N[C@@H](CCC(N)=O)C(=O)N[C@@H](CCSC)C(=O)N[C@@H](C)C(=O)N[C@@H](Cc1ccc(O)cc1)C(=O)N[C@@H](CCCNC(=N)N)C(=O)N[C@@H](Cc1ccccc1)C(N)=O [PN17] | > 100 | 
6 | CC[C@H](C)[C@H](NC(=O)[C@H](CCC(N)=O)NC(=O)[C@H](CC(C)C)NC(=O)[C@H](C)NC(=O)[C@H](C)NC(=O)CNC(=O)[C@H](C)NC(=O)CNC(=O)[C@H](C)NC(C)=O)C(=O)N1CCC[C@H]1C(=O)N[C@@H](Cc1ccccc1)C(=O)N[C@@H](C)C(=O)N[C@@H](CCSC)C(=O)N[C@@H](CCC(N)=O)C(=O)N[C@@H](CCSC)C(=O)N[C@@H](C)C(=O)N[C@@H](Cc1ccc(O)cc1)C(=O)N[C@@H](CCCNC(=N)N)C(=O)N[C@@H](Cc1ccccc1)C(N)=O [PN19F→A888] | > 100 | 
7 | CC[C@H](C)[C@H](NC(=O)[C@H](CCC(N)=O)NC(=O)[C@H](CC(C)C)NC(=O)[C@H](C)NC(=O)[C@H](C)NC(=O)CNC(=O)[C@H](C)NC(=O)CNC(=O)[C@H](Cc1ccccc1)NC(C)=O)C(=O)N1CCC[C@H]1C(=O)N[C@@H](C)C(=O)N[C@@H](C)C(=O)N[C@@H](CCSC)C(=O)N[C@@H](CCC(N)=O)C(=O)N[C@@H](CCSC)C(=O)N[C@@H](C)C(=O)N[C@@H](Cc1ccc(O)cc1)C(=O)N[C@@H](CCCNC(=N)N)C(=O)N[C@@H](Cc1ccccc1)C(N)=O [PN19F→A898] | > 100 | 2-3 fold
8 | CC[C@H](C)[C@H](NC(=O)[C@H](CCC(N)=O)NC(=O)[C@H](CC(C)C)NC(=O)[C@H](C)NC(=O)[C@H](C)NC(=O)CNC(=O)[C@H](C)NC(=O)CNC(=O)[C@H](Cc1ccccc1)NC(C)=O)C(=O)N1CCC[C@H]1C(=O)N[C@@H](Cc1ccccc1)C(=O)N[C@@H](C)C(=O)N[C@@H](CCSC)C(=O)N[C@@H](CCC(N)=O)C(=O)N[C@@H](CCSC)C(=O)N[C@@H](C)C(=O)N[C@@H](Cc1ccc(O)cc1)C(=O)N[C@@H](CCCNC(=N)N)C(=O)N[C@@H](C)C(N)=O [PN19F→A906] | > 100 | 2-3 fold
9 | CSCC[C@H](NC(=O)[C@H](C)NC(=O)[C@H](Cc1ccccc1)NC(=O)[C@@H]1CCCN1C(=O)[C@H](C)NC(=O)[C@H](CCC(N)=O)NC(=O)[C@H](CC(C)C)NC(=O)[C@H](C)NC(=O)[C@H](C)NC(=O)CNC(=O)[C@H](C)NC(=O)CNC(=O)[C@H](Cc1ccccc1)NC(C)=O)C(=O)N[C@@H](CCC(N)=O)C(=O)N[C@@H](CCSC)C(=O)N[C@@H](C)C(=O)N[C@@H](Cc1ccc(O)cc1)C(=O)N[C@@H](CCCNC(=N)N)C(=O)N[C@@H](Cc1ccccc1)C(N)=O [PN19I→A896] | > 100 | 
10 | CC[C@H](C)[C@H](NC(=O)[C@H](CCC(N)=O)NC(=O)[C@H](C)NC(=O)[C@H](C)NC(=O)[C@H](C)NC(=O)CNC(=O)[C@H](C)NC(=O)CNC(=O)[C@H](Cc1ccccc1)NC(C)=O)C(=O)N1CCC[C@H]1C(=O)N[C@@H](Cc1ccccc1)C(=O)N[C@@H](C)C(=O)N[C@@H](CCSC)C(=O)N[C@@H](CCC(N)=O)C(=O)N[C@@H](CCSC)C(=O)N[C@@H](C)C(=O)N[C@@H](Cc1ccc(O)cc1)C(=O)N[C@@H](CCCNC(=N)N)C(=O)N[C@@H](Cc1ccccc1)C(N)=O [PN19L→A894] | > 100 | 
11 | CC[C@H](C)[C@H](NC(=O)[C@H](CCC(N)=O)NC(=O)[C@H](CC(C)C)NC(=O)[C@H](C)NC(=O)[C@H](C)NC(=O)CNC(=O)[C@H](C)NC(=O)CNC(=O)[C@H](Cc1ccccc1)NC(C)=O)C(=O)N1CCC[C@H]1C(=O)N[C@@H](Cc1ccccc1)C(=O)N[C@@H](C)C(=O)N[C@@H](C)C(=O)N[C@@H](CCC(N)=O)C(=O)N[C@@H](CCSC)C(=O)N[C@@H](C)C(=O)N[C@@H](Cc1ccc(O)cc1)C(=O)N[C@@H](CCCNC(=N)N)C(=O)N[C@@H](Cc1ccccc1)C(N)=O [PN19M→A900] | > 100 | 
12 | CC[C@H](C)[C@H](NC(=O)[C@H](CCC(N)=O)NC(=O)[C@H](CC(C)C)NC(=O)[C@H](C)NC(=O)[C@H](C)NC(=O)CNC(=O)[C@H](C)NC(=O)CNC(=O)[C@H](Cc1ccccc1)NC(C)=O)C(=O)N1CCC[C@H]1C(=O)N[C@@H](Cc1ccccc1)C(=O)N[C@@H](C)C(=O)N[C@@H](CCSC)C(=O)N[C@@H](CCC(N)=O)C(=O)N[C@@H](C)C(=O)N[C@@H](C)C(=O)N[C@@H](Cc1ccc(O)cc1)C(=O)N[C@@H](CCCNC(=N)N)C(=O)N[C@@H](Cc1ccccc1)C(N)=O [PN19M→A902] | > 100 | 
13 | CC[C@H](C)[C@H](NC(=O)[C@H](CCC(N)=O)NC(=O)[C@H](CC(C)C)NC(=O)[C@H](C)NC(=O)[C@H](C)NC(=O)CNC(=O)[C@H](C)NC(=O)CNC(=O)[C@H](Cc1ccccc1)NC(C)=O)C(=O)N[C@@H](C)C(=O)N[C@@H](Cc1ccccc1)C(=O)N[C@@H](C)C(=O)N[C@@H](CCSC)C(=O)N[C@@H](CCC(N)=O)C(=O)N[C@@H](CCSC)C(=O)N[C@@H](C)C(=O)N[C@@H](Cc1ccc(O)cc1)C(=O)N[C@@H](CCCNC(=N)N)C(=O)N[C@@H](Cc1ccccc1)C(N)=O [PN19P→A897] | > 100 | 
14 | CC[C@H](C)[C@H](NC(=O)[C@H](C)NC(=O)[C@H](CC(C)C)NC(=O)[C@H](C)NC(=O)[C@H](C)NC(=O)CNC(=O)[C@H](C)NC(=O)CNC(=O)[C@H](Cc1ccccc1)NC(C)=O)C(=O)N1CCC[C@H]1C(=O)N[C@@H](Cc1ccccc1)C(=O)N[C@@H](C)C(=O)N[C@@H](CCSC)C(=O)N[C@@H](CCC(N)=O)C(=O)N[C@@H](CCSC)C(=O)N[C@@H](C)C(=O)N[C@@H](Cc1ccc(O)cc1)C(=O)N[C@@H](CCCNC(=N)N)C(=O)N[C@@H](Cc1ccccc1)C(N)=O [PN19Q→A895] | >100 | 
15 | CC[C@H](C)[C@H](NC(=O)[C@H](CCC(N)=O)NC(=O)[C@H](CC(C)C)NC(=O)[C@H](C)NC(=O)[C@H](C)NC(=O)CNC(=O)[C@H](C)NC(=O)CNC(=O)[C@H](Cc1ccccc1)NC(C)=O)C(=O)N1CCC[C@H]1C(=O)N[C@@H](Cc1ccccc1)C(=O)N[C@@H](C)C(=O)N[C@@H](CCSC)C(=O)N[C@@H](C)C(=O)N[C@@H](CCSC)C(=O)N[C@@H](C)C(=O)N[C@@H](Cc1ccc(O)cc1)C(=O)N[C@@H](CCCNC(=N)N)C(=O)N[C@@H](Cc1ccccc1)C(N)=O [PN19Q→A901] | > 100 | 
16 | CC[C@H](C)[C@H](NC(=O)[C@H](CCC(N)=O)NC(=O)[C@H](CC(C)C)NC(=O)[C@H](C)NC(=O)[C@H](C)NC(=O)CNC(=O)[C@H](C)NC(=O)CNC(=O)[C@H](Cc1ccccc1)NC(C)=O)C(=O)N1CCC[C@H]1C(=O)N[C@@H](Cc1ccccc1)C(=O)N[C@@H](C)C(=O)N[C@@H](CCSC)C(=O)N[C@@H](CCC(N)=O)C(=O)N[C@@H](CCSC)C(=O)N[C@@H](C)C(=O)N[C@@H](Cc1ccc(O)cc1)C(=O)N[C@@H](C)C(=O)N[C@@H](Cc1ccccc1)C(N)=O [PN19R→A905] | > 100 | 
17 | CC[C@H](C)[C@H](NC(=O)[C@H](CCC(N)=O)NC(=O)[C@H](CC(C)C)NC(=O)[C@H](C)NC(=O)[C@H](C)NC(=O)CNC(=O)[C@H](C)NC(=O)CNC(=O)[C@H](Cc1ccccc1)NC(C)=O)C(=O)N1CCC[C@H]1C(=O)N[C@@H](Cc1ccccc1)C(=O)N[C@@H](C)C(=O)N[C@@H](CCSC)C(=O)N[C@@H](CCC(N)=O)C(=O)N[C@@H](CCSC)C(N)=O [PNC15] | > 100 | 
18 | CC[C@H](C)[C@H](NC(=O)[C@H](CCC(N)=O)NC(=O)[C@H](CC(C)C)NC(=O)[C@H](C)NC(=O)[C@H](C)NC(=O)CNC(=O)[C@H](C)NC(=O)CNC(=O)[C@H](Cc1ccccc1)NC(=O)[C@@H](NC(=O)[C@H](Cc1c[nH]c2ccccc12)NC(C)=O)[C@@H](C)O)C(=O)N1CCC[C@H]1C(=O)N[C@@H](Cc1ccccc1)C(=O)N[C@@H](C)C(=O)N[C@@H](CCSC)C(=O)N[C@@H](CCC(N)=O)C(=O)N[C@@H](CCSC)C(=O)N[C@@H](C)C(=O)N[C@@H](Cc1ccc(O)cc1)C(N)=O [PNC19] | > 100 | 
